Laboratory results as given in patent US10167262B2, “Herbicidal substituted 3-arylpyrazoles” (FMC CORPORATION, priority 2014, dated 2019).

Columns and labels:
Format in all cases: in vivo
[1] = tested on: barnyardgrass (Echinochloa crus-galli); experiment: Test A pre-/postemergence greenhouse herbicide test, visual injury rating 0-100
Method in brief: (§1)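 Test chemicals in a non-phytotoxic solvent/surfactant blend were sprayed onto loam–sand soil after planting (pre) and onto 2–10 cm seedlings at one to two leaves (post). Greenhouse hold approx. 10 days; injury then judged visually.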

corn (Zea mays) = experiment: as above
Method in brief: as §1

[2] = tested on: giant foxtail (Setaria faberii); experiment: as above
Method in brief: as §1

[3] = tested on: large (Lg) crabgrass (Digitaria sanguinalis); experiment: as above
Method in brief: as §1

[4] = tested on: morningglory (Ipomoea spp.); experiment: as above
Method in brief: as §1

[5] = tested on: pigweed (Amaranthus retroflexus); experiment: as above
Method in brief: as §1

[6] = tested on: velvetleaf (Abutilon theophrasti); experiment: as above
Method in brief: as §1

[7] = tested on: wheat (Triticum aestivum); experiment: as above
Method in brief: as §1

[8] = tested on: barnyardgrass (Echinochloa crus-galli); experiment: Test B flooded paddy test, plant response rating 0-100; conditions: Flood, 250 g ai/ha; scale 0 to 100 (0 no effect, 100 complete control); 13 to 15 days
From the text: (§2) At time of treatment, test pots were flooded to 3 cm above the soil surface, treated by application of test compounds directly to the paddy water, and then maintained at that water depth for the duration of the test. Treated plants and controls were maintained in a greenhouse for 13 to 15 days, after which time all species were compared to controls and visually evaluated. […] A dash (-) response means no test result.

[9] = tested on: ducksalad (Heteranthera limosa); experiment: as above; conditions: Flood, 250 g ai/ha; scale 0 to 100 (0 no effect, 100 complete control); 13 to 15 days
From the text: as §2

rice (Oryza sativa) = experiment: as above; conditions: Flood, 250 g ai/ha; scale 0 to 100 (0 no effect, 100 complete control); 13 to 15 days
From the text: as §2

[10] = tested on: sedge, umbrella (small-flower umbrella sedge, Cyperus difformis); experiment: as above; conditions: Flood, 250 g ai/ha; scale 0 to 100 (0 no effect, 100 complete control); 13 to 15 days
From the text: as §2

Compound	Plant response rating (0 to 100 scale), Barnyardgrass ([1]; Postemergence, 125 g ai/ha)	Plant response rating (0 to 100 scale), Barnyardgrass ([1]; Postemergence, 500 g ai/ha)	Barnyardgrass plant response rating (0 = no effect, 100 = complete control) ([1]; Preemergence, 125 g ai/ha)	Plant response rating (0 to 100 scale), Barnyardgrass ([1]; Preemergence, 500 g ai/ha)	Corn plant response rating (0 = no effect, 100 = complete control) (corn (Zea mays); Preemergence, 125 g ai/ha)	Plant response rating (0 to 100 scale), Corn (corn (Zea mays); Preemergence, 500 g ai/ha)	Plant response rating (0 to 100 scale), Foxtail, Giant ([2]; Postemergence, 125 g ai/ha)	Plant response rating (0 to 100 scale), Foxtail, Giant ([2]; Postemergence, 500 g ai/ha)	Foxtail, Giant plant response rating (0 = no effect, 100 = complete control) ([2]; Preemergence, 125 g ai/ha)	Plant response rating (0 to 100 scale), Foxtail, Giant ([2]; Preemergence, 500 g ai/ha)	Plant response rating (0 to 100 scale), Crabgrass, Large ([3]; Postemergence, 125 g ai/ha)	Plant response rating (0 to 100 scale), Crabgrass, Large ([3]; Postemergence, 500 g ai/ha)	Crabgrass, Large plant response rating (0 = no effect, 100 = complete control) ([3]; Preemergence, 125 g ai/ha)	Plant response rating (0 to 100 scale), Crabgrass, Large ([3]; Preemergence, 500 g ai/ha)	Plant response rating (0 to 100 scale), Morningglory ([4]; Postemergence, 125 g ai/ha)	Plant response rating (0 to 100 scale), Morningglory ([4]; Postemergence, 500 g ai/ha)	Plant response rating, Barnyardgrass [8]	Plant response rating, Ducksalad [9]	Plant response rating, Rice (rice (Oryza sativa))	Plant response rating, Sedge, Umbrella [10]	further results
O=C(c1ccccc1)c1cn(C(=O)Cc2ccccc2)nc1-c1cc(Cl)cc(Cl)c1 [Compound 4]	0	0	0	0	0	0	0	10	0	30	0	0	0	20	0	0	0	0	0	0	Plant response rating (0 to 100 scale), Corn (corn (Zea mays); Postemergence, 125 g ai/ha): 0; Plant response rating (0 to 100 scale), Corn (corn (Zea mays); Postemergence, 500 g ai/ha): 0; Morningglory plant response rating (0 = no effect, 100 = complete control) ([4]; Preemergence, 125 g ai/ha): 0; Plant response rating (0 to 100 scale), Morningglory ([4]; Preemergence, 500 g ai/ha): 0; Plant response rating (0 to 100 scale), Pigweed ([5]; Postemergence, 125 g ai/ha): 70; Plant response rating (0 to 100 scale), Pigweed ([5]; Postemergence, 500 g ai/ha): 80; Pigweed plant response rating (0 = no effect, 100 = complete control) ([5]; Preemergence, 125 g ai/ha): 80; Plant response rating (0 to 100 scale), Pigweed ([5]; Preemergence, 500 g ai/ha): 90; Plant response rating (0 to 100 scale), Velvetleaf ([6]; Postemergence, 125 g ai/ha): 80; Plant response rating (0 to 100 scale), Velvetleaf ([6]; Postemergence, 500 g ai/ha): 90; Velvetleaf plant response rating (0 = no effect, 100 = complete control) ([6]; Preemergence, 125 g ai/ha): 70; Plant response rating (0 to 100 scale), Velvetleaf ([6]; Preemergence, 500 g ai/ha): 90; Plant response rating (0 to 100 scale), Wheat ([7]; Postemergence, 125 g ai/ha): 0; Plant response rating (0 to 100 scale), Wheat ([7]; Postemergence, 500 g ai/ha): 0; Wheat plant response rating (0 = no effect, 100 = complete control) ([7]; Preemergence, 125 g ai/ha): 0; Plant response rating (0 to 100 scale), Wheat ([7]; Preemergence, 500 g ai/ha): 0
ON=C(c1cccnc1)c1c[nH]nc1-c1cc(Cl)cc(Cl)c1 [Compound 5]	0	0	0	0	0	0	0	0	0	0	0	0	0	0	0	0	0	0	0	0	Morningglory plant response rating (0 = no effect, 100 = complete control) ([4]; Preemergence, 125 g ai/ha): 0; Plant response rating (0 to 100 scale), Morningglory ([4]; Preemergence, 500 g ai/ha): 0; Plant response rating (0 to 100 scale), Pigweed ([5]; Postemergence, 125 g ai/ha): 0; Plant response rating (0 to 100 scale), Pigweed ([5]; Postemergence, 500 g ai/ha): 0; Pigweed plant response rating (0 = no effect, 100 = complete control) ([5]; Preemergence, 125 g ai/ha): 0; Plant response rating (0 to 100 scale), Pigweed ([5]; Preemergence, 500 g ai/ha): 20; Plant response rating (0 to 100 scale), Velvetleaf ([6]; Postemergence, 125 g ai/ha): 0; Plant response rating (0 to 100 scale), Velvetleaf ([6]; Postemergence, 500 g ai/ha): 0; Velvetleaf plant response rating (0 = no effect, 100 = complete control) ([6]; Preemergence, 125 g ai/ha): 0; Plant response rating (0 to 100 scale), Velvetleaf ([6]; Preemergence, 500 g ai/ha): 0; Plant response rating (0 to 100 scale), Wheat ([7]; Postemergence, 125 g ai/ha): 0; Plant response rating (0 to 100 scale), Wheat ([7]; Postemergence, 500 g ai/ha): 0; Wheat plant response rating (0 = no effect, 100 = complete control) ([7]; Preemergence, 125 g ai/ha): 0; Plant response rating (0 to 100 scale), Wheat ([7]; Preemergence, 500 g ai/ha): 0
Cn1cc(C(=O)c2cccnc2)c(-c2cc(Cl)cc(Cl)c2)n1 [Compound 6]	0	0	0	0	0	0	0	0	0	0	0	0	0	0	0	0	0	0	0	0	Plant response rating (0 to 100 scale), Corn (corn (Zea mays); Postemergence, 125 g ai/ha): 0; Plant response rating (0 to 100 scale), Corn (corn (Zea mays); Postemergence, 500 g ai/ha): 0; Morningglory plant response rating (0 = no effect, 100 = complete control) ([4]; Preemergence, 125 g ai/ha): 0; Plant response rating (0 to 100 scale), Morningglory ([4]; Preemergence, 500 g ai/ha): 0; Plant response rating (0 to 100 scale), Pigweed ([5]; Postemergence, 125 g ai/ha): 0; Plant response rating (0 to 100 scale), Pigweed ([5]; Postemergence, 500 g ai/ha): 30; Pigweed plant response rating (0 = no effect, 100 = complete control) ([5]; Preemergence, 125 g ai/ha): 0; Plant response rating (0 to 100 scale), Pigweed ([5]; Preemergence, 500 g ai/ha): 20; Plant response rating (0 to 100 scale), Velvetleaf ([6]; Postemergence, 125 g ai/ha): 10; Plant response rating (0 to 100 scale), Velvetleaf ([6]; Postemergence, 500 g ai/ha): 10; Velvetleaf plant response rating (0 = no effect, 100 = complete control) ([6]; Preemergence, 125 g ai/ha): 0; Plant response rating (0 to 100 scale), Velvetleaf ([6]; Preemergence, 500 g ai/ha): 20; Plant response rating (0 to 100 scale), Wheat ([7]; Postemergence, 125 g ai/ha): 0; Plant response rating (0 to 100 scale), Wheat ([7]; Postemergence, 500 g ai/ha): 0; Wheat plant response rating (0 = no effect, 100 = complete control) ([7]; Preemergence, 125 g ai/ha): 0; Plant response rating (0 to 100 scale), Wheat ([7]; Preemergence, 500 g ai/ha): 0
Cn1cc(C(=O)c2ccccc2)c(-c2cc(F)cc(Cl)c2)n1 [Compound 47]																	0	0	0	0	Plant response rating (0 to 100 scale), Barnyardgrass ([1]; Postemergence, 1000 g ai/ha): 0; Plant response rating (0 to 100 scale), Barnyardgrass ([1]; Preemergence, 1000 g ai/ha): 0; Plant response rating (0 to 100 scale), Corn (corn (Zea mays); Postemergence, 1000 g ai/ha): 0; Plant response rating (0 to 100 scale), Corn (corn (Zea mays); Preemergence, 1000 g ai/ha): 0; Plant response rating (0 to 100 scale), Foxtail, Giant ([2]; Postemergence, 1000 g ai/ha): 0; Plant response rating (0 to 100 scale), Foxtail, Giant ([2]; Preemergence, 1000 g ai/ha): 0; Plant response rating (0 to 100 scale), Crabgrass, Large ([3]; Postemergence, 1000 g ai/ha): 0; Plant response rating (0 to 100 scale), Crabgrass, Large ([3]; Preemergence, 1000 g ai/ha): 0; Plant response rating (0 to 100 scale), Pigweed ([5]; Postemergence, 1000 g ai/ha): 90; Plant response rating (0 to 100 scale), Pigweed ([5]; Preemergence, 1000 g ai/ha): 80; Plant response rating (0 to 100 scale), Velvetleaf ([6]; Postemergence, 1000 g ai/ha): 90; Plant response rating (0 to 100 scale), Velvetleaf ([6]; Preemergence, 1000 g ai/ha): 90; Plant response rating (0 to 100 scale), Wheat ([7]; Postemergence, 1000 g ai/ha): 0; Plant response rating (0 to 100 scale), Wheat ([7]; Preemergence, 1000 g ai/ha): 0
